The text below walks through data of publication PMC4381582, “RNA interference screening identifies a novel role for PCTK1/CDK16 in medulloblastoma with c-Myc amplification” (Oncotarget, 2014).

As usually defined, the IC50 is the concentration needed to halve the response being measured.

The target of this assay is T1, PCTAIRE1 (PCTK1/CDK16) (Homo sapiens, UniProt Q00536).
T1 construct: recombinant GST-fusion or His-tagged protein from human cDNA, expressed in Sf9 insect cells or E. coli; with CycY (cyclin Y)
T1 sequence (Q00536 whole entry, the tested form may be a part): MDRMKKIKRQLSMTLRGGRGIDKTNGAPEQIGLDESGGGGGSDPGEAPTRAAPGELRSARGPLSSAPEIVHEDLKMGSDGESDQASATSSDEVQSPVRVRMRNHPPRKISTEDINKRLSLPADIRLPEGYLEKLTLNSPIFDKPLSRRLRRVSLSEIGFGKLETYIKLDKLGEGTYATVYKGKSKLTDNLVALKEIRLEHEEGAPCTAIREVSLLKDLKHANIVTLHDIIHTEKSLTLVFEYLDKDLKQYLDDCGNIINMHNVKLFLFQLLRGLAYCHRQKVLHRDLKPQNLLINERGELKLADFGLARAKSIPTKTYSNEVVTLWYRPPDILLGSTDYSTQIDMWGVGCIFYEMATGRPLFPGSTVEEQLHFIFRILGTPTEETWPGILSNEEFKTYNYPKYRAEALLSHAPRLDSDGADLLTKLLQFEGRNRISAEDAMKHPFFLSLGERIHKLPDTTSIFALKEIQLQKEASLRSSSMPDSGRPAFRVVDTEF
T1 sequence (Q8ND76 2-341 partner): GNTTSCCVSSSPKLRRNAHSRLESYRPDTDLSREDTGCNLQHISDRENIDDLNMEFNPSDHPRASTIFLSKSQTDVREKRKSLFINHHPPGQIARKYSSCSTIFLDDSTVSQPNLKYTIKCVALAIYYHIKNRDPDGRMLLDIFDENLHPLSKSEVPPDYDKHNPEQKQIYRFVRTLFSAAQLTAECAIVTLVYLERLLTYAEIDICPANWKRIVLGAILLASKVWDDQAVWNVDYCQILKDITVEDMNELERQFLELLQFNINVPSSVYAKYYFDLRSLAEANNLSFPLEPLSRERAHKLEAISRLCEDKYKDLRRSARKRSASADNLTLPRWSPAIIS
Kind of assay: radiometric protein kinase assay ([…]PanQinase) with GSK3([…]-27) peptide substrate. It counts as biochemical.

In turn, `O=C1Nc2ccccc2/C1=C1/Nc2ccccc2/C1=N\OCCC(O)CO` (stereo not shown) [indirubin E804] came in with a 50% inhibitory concentration (IC50) of 53 nM.
